Experimental data: US10039845B2, “Labeled inhibitors of prostate specific membrane antigen (PSMA) biological evaluation, and use of imaging agents” (THE JOHNS HOPKINS UNIVERSITY, priority 2007, dated 2018)

Columns and labels:
LNCaP (PSMA+) tumor = experiment: In vivo binding specificity (blocking) study, SPECT-CT; design: species or system mice; settings: LNCaP tumor bearing animal, PMPA 50 mg/kg (1 mg), images 30-60 min postinjection
Description: SPECT-CT imaging was then performed as described above, with both animals on the scanner gantry.

PSMA+ PC3 PIP cells = experiment: In vitro fluorescence microscopy in PC3 PIP and PC3 flu cells; format: cell-based, human; settings: excitation 494 nm, emission 628 nm, 1 h incubation
Description: Coordination of the bisquinoline moiety of L2 with Re(CO)3 renders this complex fluorescent. Accordingly, microscopy was performed using ReL2 in live cells (FIG. 2). […] The mechanism of internalization of PSMA has been studied previously, however only antibodies and antibody conjugates have been used, rather than small molecules (Rajasekaran, S. A.; et al. Mol Biol Cell 2003, 14, 4835-4845; Moffatt, S.; et al. Gene Ther 2006, 13, 761-772).
Following fresh preparation of ReL2, 10,000 PC3 PIP and PC3 flu cells were seeded separately into each of four wells of a Lab-Tek II 8-well chamber slide (Fisher Scientific). The cells were cultured as described above and were allowed to attach to the bottom of the wells overnight at 37° C. in 5% CO2 in air. […] The cells were then returned to the incubator for one hour to enable binding. Each well was then carefully washed by removing the supernatant followed by addition of warm culture media for 30 seconds. The wash media was then removed and added to the contents of the well chambers. Dako Cytomation mounting medium was then applied and a glass coverslip was added. The mounting medium was allowed to dry at ambient temperature for 20 min prior to storage of the slide at 4° C. overnight. The cells were then viewed using an Olympus BX61 fluorescence microscope equipped with a Semrock DAPI/FITC/Texas Red triple filter cube.

PSMA = target: T1, PSMA (Homo sapiens, UniProt Q04609); experiment: NAALADase assay (NAAG hydrolysis, LNCaP cell extracts); format: biochemical; settings: for Ki: LNCaP cell extracts, Cheng-Prusoff conversion, read-out: Ki (PSMA inhibitory activity)
T1 construct: LNCaP cell extracts were prepared by sonication in NAALADase buffer; endogenous in cells; host or cells: LNCaP cell extract (sonicated in 50 mM Tris pH 7.4, 0.5% Triton X-100)
Description: The relative binding affinities of L1-L7 and ReL1-ReL7, were determined using the N-acetylated-α-linked acidic dipeptidase (NAALADase) assay as previously described.
NAAG hydrolysis was performed essentially as described previously (Robinson, M. B.; et al. J Biol Chem 1987, 262, 14498-14506; Lupold, S. E.; et al. Cancer Res 2002, 62, 4029-4033.). In short, LNCaP cell extracts were prepared by sonication in NAALADase buffer [50 mM Tris (pH 7.4) and 0.5% Triton X-100]. Cell lysates were incubated with or without inhibitor at 37° C. for 10 minutes. Following the incubation the radiolabeled substrate N-acetyl-L-aspartyl-L-(3,4-^3H)glutamate (NEN Life Science Products, Boston, Mass.) was added to a final concentration of 30 nM at 37° C. for 10-15 min. The reaction was stopped by the addition of an equal volume of ice-cold 100 mM sodium phosphate and 2 mM EDTA. Products were partitioned by AG 1-X8 formate resin (Bio-Rad Laboratories) anion exchange chromatography, eluted with 1 M sodium formate, and quantified by liquid scintillation counting. […] Assays were performed in triplicate with the entire inhibition study being repeated at least once to confirm affinity and mode of inhibition. Data were collected during linear phase of hydrolysis (i.e., <20% cleavage of total substrate). Enzyme inhibitory constants (Ki values) were generated using the Cheng-Prusoff conversion (Cheng, Y.; Prusoff, W. H. Biochem Pharmcol 1973, 22, 3099-3108).

[1] = tested on: PSMA+ PC3 PIP and PSMA− PC3 flu xenografts; settings: for PIP (PSMA+) tumor uptake on SPECT-CT: SCID mice, 0.5-1 mCi i.v., imaged at 45 min p.i.; for uptake in normal organs (gallbladder, liver, kidneys) on SPECT-CT: mouse, in vivo, iv; for tumor contrast on late SPECT-CT images: several hours after injection (3.5-4 h uptake period)
[2] = Metabolite studies (HPLC of tissue extracts, plasma, urine); format: in vivo, mice
Description: Mice were sacrificed at either 30 min or 1 h postinjection by cervical dislocation and their blood and selected organs were removed. Blood samples were withdrawn using heparinized syringes and tissues were placed on ice prior to manual homogenization in PBS, pH 7.4. Plasma and tissue homogenates in PBS were centrifuged for 2 min at 13,000×g at ambient temperature. A portion of the supernatant was diluted to 4 mL in 8 M urea containing 50 mg citric acid. Urine samples were added directly to 4 mL of the acidified urea solution. Samples then underwent separation by HPLC as previously described (Hilton, J.; et al. Nucl Med Biol 2000, 27, 627-630). Briefly, the 4 mL sample in 8 M acidified urea was passed through a capture column (Strata-X, 19×4.4 mm, Phenomenex, Torrance, Calif.) at 2 mL/min followed by 1% acetonitrile in water to wash plasma proteins from the column. The effluent from the capture column, containing only highly polar components, flowed through a dual BGO detector (Bioscan, Washington, D.C.) operating in the […]. The solvent was then switched to 30% acetonitrile:50 mM phosphate buffer at pH 2.4 (2 mL/min) for elution of the radiolabeled components previously bound to the capture column onto the analytical column (Synergi Polar-RP 250×4.6 mm 10 micron particle size Phenomenex).

[3] = tested on: PSMA+ PC3 PIP and PSMA− PC3 flu xenografts; settings: mouse, in vivo

T1 sequence (Q04609 whole entry): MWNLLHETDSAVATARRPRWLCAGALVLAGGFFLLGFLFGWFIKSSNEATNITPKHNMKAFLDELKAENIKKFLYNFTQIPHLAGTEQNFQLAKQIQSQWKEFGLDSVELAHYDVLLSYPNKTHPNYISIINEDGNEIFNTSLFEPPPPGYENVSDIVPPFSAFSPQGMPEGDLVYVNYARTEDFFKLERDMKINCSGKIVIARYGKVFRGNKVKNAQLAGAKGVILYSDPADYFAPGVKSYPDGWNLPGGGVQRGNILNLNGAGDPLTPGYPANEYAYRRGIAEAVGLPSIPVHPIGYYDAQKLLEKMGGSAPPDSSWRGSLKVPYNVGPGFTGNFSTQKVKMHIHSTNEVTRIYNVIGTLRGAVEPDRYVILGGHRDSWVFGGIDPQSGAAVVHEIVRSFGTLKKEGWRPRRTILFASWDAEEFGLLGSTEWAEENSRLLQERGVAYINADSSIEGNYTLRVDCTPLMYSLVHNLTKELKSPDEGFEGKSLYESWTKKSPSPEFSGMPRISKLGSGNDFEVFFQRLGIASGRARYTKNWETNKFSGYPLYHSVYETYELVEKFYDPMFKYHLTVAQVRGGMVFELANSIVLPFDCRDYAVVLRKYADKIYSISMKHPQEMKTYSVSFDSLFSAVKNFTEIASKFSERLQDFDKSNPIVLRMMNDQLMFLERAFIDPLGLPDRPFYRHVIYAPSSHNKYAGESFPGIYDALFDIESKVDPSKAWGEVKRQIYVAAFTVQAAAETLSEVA

Row | Molecule | Ki (PSMA) [nM] | PIP (PSMA+) tumor uptake on SPECT-CT [1] | uptake in normal organs (gallbladder, liver, kidneys) on SPECT-CT [1] | also measured
1 | O=C(O)CCC(CP(=O)(O)O)C(=O)O (stereo not shown) [PMPA, 2-(phosphonomethyl)pentanedioic acid] |  |  |  | blockade of [^99mTc]L1 binding to tumor and renal cortex (LNCaP (PSMA+) tumor): capable of eliminating binding of [^99mTc]L1
2 | O=C(O)CCC(NC(=O)NC(CCCCNC(=O)CCCCCCC(=O)NC(CCCCN(Cc1ccc2ccccc2n1)Cc1ccc2ccccc2n1)C(=O)O)C(=O)O)C(=O)O.[Br-].[C-]#[O+].[C-]#[O+].[C-]#[O+].[Re+] (stereo not drawn) [ReL2, Tricarbonyl(2-[3-(5-{7-[5-(bis-quinolin-2-ylmethyl-amino)-1-carboxy-pentylcarbamoyl]-heptanoylamino}-1-carboxy-pentyl)-ureido]-pentanedioic acid) rhenium bromide] | 0.5 |  |  | fluorescent signal in live cells (internalization) (PSMA+ PC3 PIP cells): weak but observable fluorescent signal from within the PSMA+ PC3 PIP cells; fold higher PSMA inhibitory activity than ReL1 (PSMA; relative to ReL1): 20 fold
3 | O=C(O)CCC(NC(=O)NC(CCCCNC(=O)CCCCCCC(=O)NCCCCCCN(Cc1ccccn1)Cc1ccccn1)C(=O)O)C(=O)O.[Br-].[C-]#[O+].[C-]#[O+].[C-]#[O+].[Re+] (stereo not drawn) [ReL7, Tricarbonyl(2-[3-(5-{7-[6-(Bis-pyridin-2-ylmethyl-amino)-hexylcarbamoyl]-heptanoylamino}-1-carboxy-pentyl)-ureido]-pentanedioic acid)rhenium bromide] | 2.06 |  |  | 
4 | O=C(O)CC[C@H](NC(=O)N[C@@H](CCCCNC(=O)CCCCCCC(=O)N[C@@H](CCCCN(Cc1ccccn1)Cc1ccccn1)C(=O)O)C(=O)O)C(=O)O.[99Tc+].[C-]#[O+].[C-]#[O+].[C-]#[O+] [[^99mTc]L1] |  | strongly positive PIP tumor | gallbladder uptake and clear visualization of the kidneys | tumor contrast on late SPECT-CT images [1]: higher contrast of tumor with respect to background; chromatographed radioactivity as the parent compound ([2]; all other tissue extracts, plasma and urine at 30 and 60 min postinjection): 100%; extracted radioactivity as a polar metabolite ([2]; mouse kidney extracted 60 min after injection): 2%
5 | O=C(O)CC[C@H](NC(=O)N[C@@H](CCCCNC(=O)CCCCCCC(=O)N[C@@H](CCCCN(Cc1ccc2ccccc2n1)Cc1ccc2ccccc2n1)C(=O)O)C(=O)O)C(=O)O.[99Tc+].[C-]#[O+].[C-]#[O+].[C-]#[O+] [[^99mTc]L2] |  | weak PIP tumor uptake | strong gallbladder uptake and kidney uptake | 
6 | O=C(O)CCC(NC(=O)NC(CCCCNC(=O)CCCCCCC(=O)NCCCCC(C(=O)O)N(Cc1ccccn1)Cc1ccccn1)C(=O)O)C(=O)O.[99Tc+].[C-]#[O+].[C-]#[O+].[C-]#[O+] (stereo not shown) [[^99mTc]L3] |  | strong PIP tumor uptake | gallbladder uptake and clear visualization of the kidneys | tumor contrast on late SPECT-CT images [1]: higher contrast of tumor with respect to background; PIP:flu uptake ratio, held steady [3]: around 5
7 | O=C(O)CC[C@H](NC(=O)N[C@@H](CCCCNC(=O)CCCCCCCN(Cc1ccccn1)Cc1ccccn1)C(=O)O)C(=O)O.[99Tc+].[C-]#[O+].[C-]#[O+].[C-]#[O+] [[^99mTc]L5] |  | qualitatively similar to [^99mTc]L4 |  | 
8 | O=C(O)CC[C@H](NC(=O)N[C@@H](CCCCN(Cc1ccccn1)Cc1ccccn1)C(=O)O)C(=O)O.[99Tc+].[C-]#[O+].[C-]#[O+].[C-]#[O+] [[^99mTc]L6] |  | no PIP tumor-specific uptake |  | 
9 | Tricarbonyl (2-[3-(5-{7-[5-(bis-pyridin-2-ylmethyl-amino)-1-carboxy-pentylcarbamoyl]-heptanoylamino}-1-carboxy-pentyl)-ureido]-pentanedioic acid) rhenium bromide [ReL1] | 10.8 |  |  | 
